Patent US12180207B2 (ARRAY BIOPHARMA INC., priority 2018, dated 2024)

Legend:
[1] = molecular target: T1, HEK-293 cells transfected with dox-inducible human wild type FGFR3 (Homo sapiens (Human), UniProt P22607); assay: FGFR3 pFGFR cell assay (ELISA); assay type: cell-based; details: HEK-293 dox-inducible FGFR3, 1 hour compound, 100 ng/ml FGF-acidic
In short: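 Doxycycline-induced (1 μg/ml) HEK-293 cells expressing wild-type human FGFR3, treated 1 h with compound (1:3 series, top final 5 μM), then stimulated 5 min with 100 ng/ml FGF-acidic. Phospho-FGFR3 measured by ELISA (total FGFR3 capture, phosphotyrosine detection, OD 450 nm); IC50 from 4-parameter fit of POC values.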

[2] = molecular target: T1, HEK-293 cells transfected with dox-inducible human wild type FGFR3; assay: FGFR3 pERK cell assay; assay type: cell-based; details: HEK-293 dox-inducible FGFR3, 1 hour compound, 100 ng/ml FGF-acidic; maximum concentration 5 μM
In short: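 Doxycycline-induced cells preincubated 1 h at 37 °C with compound (1:3 dilutions, top 5 μM final), then stimulated 5 min with 100 ng/ml FGF-acidic. Lysate phospho-ERK1/2 measured by MSD sandwich assay; IC50 at 50 POC from 4-parameter fit, normalised to no-compound and control-compound wells.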

[3] = molecular target: phosphorylated FGFR3 (SEQ ID NO: 5, amino acids 449 to 759) (Homo sapiens (Human), UniProt P22607); assay: FGFR enzyme binding assay (HTRF tracer displacement), FGFR3; details: 5 nM phosphorylated FGFR3, average of multiple determinations if made
In short: (§1)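 Compounds were tested for displacement of a tracer from human FGFR kinase in a time-resolved FRET binding format. After 60 minutes at 22° C, signal was read at two wavelengths and converted to percent of control, normalised between untreated wells and 1 μM reference inhibitor.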

[4] = molecular target: FGFR3 (SEQ ID NO: 5, amino acids 449-759) (Homo sapiens (Human), UniProt P22607); assay: LC/MS FGFR3 kobs assay (covalent protein modification); assay type: binding; details: 500 nM FGFR3, 3 μM compound
In short: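 Intact-mass LC/MS tracks covalent labeling of the kinase domain over time after acid quench (0.4% formic acid). Unmodified fraction, scaled to DMSO controls, is fitted as exponential decay; kobs is reported, averaged when measured more than once.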

[5] = molecular target: HEK-293 cells transfected with dox-inducible human wild type FGFR1 (Homo sapiens (Human), UniProt P11362); assay: FGFR1 pERK cell assay; assay type: cell-based; details: HEK-293 dox-inducible FGFR1, 1 hour compound, 100 ng/ml FGF-acidic; maximum concentration 5 μM
In short: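 In HEK-293 cells with dox-induced human wild-type FGFR1, compounds (1:3 dilutions, top 5 μM final) were applied 1 h at 37°C before 5 min stimulation with 100 ng/ml FGF-acidic. Phospho-ERK1/2 measured by MSD sandwich immunoassay; IC50 from 4-parameter fit of POC versus vehicle and control compound.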

[6] = molecular target: dephosphorylated FGFR2 (Homo sapiens (Human), UniProt P21802); assay: FGFR enzyme binding assay (HTRF tracer displacement), FGFR2; details: 5 nM dephosphorylated FGFR2, average of multiple determinations if made
In short: as §1

Sequence of HEK-293 cells transfected with dox-inducible human wild type FGFR1 (P11362 22-822): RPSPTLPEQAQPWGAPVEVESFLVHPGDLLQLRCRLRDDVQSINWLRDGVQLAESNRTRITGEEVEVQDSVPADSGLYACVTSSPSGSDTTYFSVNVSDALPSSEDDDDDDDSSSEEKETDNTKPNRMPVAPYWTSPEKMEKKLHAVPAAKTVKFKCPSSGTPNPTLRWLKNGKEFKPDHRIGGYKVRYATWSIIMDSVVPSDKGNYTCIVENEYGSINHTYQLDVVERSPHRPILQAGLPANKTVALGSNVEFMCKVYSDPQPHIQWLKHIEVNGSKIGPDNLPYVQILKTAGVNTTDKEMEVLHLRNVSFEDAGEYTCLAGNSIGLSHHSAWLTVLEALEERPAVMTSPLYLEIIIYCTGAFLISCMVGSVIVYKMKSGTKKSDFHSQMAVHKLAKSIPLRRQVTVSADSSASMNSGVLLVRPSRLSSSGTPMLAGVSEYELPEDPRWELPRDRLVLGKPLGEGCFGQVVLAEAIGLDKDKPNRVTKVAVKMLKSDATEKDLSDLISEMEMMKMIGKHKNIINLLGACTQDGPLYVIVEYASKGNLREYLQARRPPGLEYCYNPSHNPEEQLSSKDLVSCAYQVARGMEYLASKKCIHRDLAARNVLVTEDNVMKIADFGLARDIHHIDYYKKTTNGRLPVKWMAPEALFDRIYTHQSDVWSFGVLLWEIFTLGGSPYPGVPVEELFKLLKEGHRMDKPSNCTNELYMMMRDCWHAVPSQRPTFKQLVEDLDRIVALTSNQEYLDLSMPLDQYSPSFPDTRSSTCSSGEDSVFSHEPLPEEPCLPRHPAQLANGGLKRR
Sequence of phosphorylated FGFR3 (SEQ ID NO: 5, amino acids 449 to 759) (P22607 449-759): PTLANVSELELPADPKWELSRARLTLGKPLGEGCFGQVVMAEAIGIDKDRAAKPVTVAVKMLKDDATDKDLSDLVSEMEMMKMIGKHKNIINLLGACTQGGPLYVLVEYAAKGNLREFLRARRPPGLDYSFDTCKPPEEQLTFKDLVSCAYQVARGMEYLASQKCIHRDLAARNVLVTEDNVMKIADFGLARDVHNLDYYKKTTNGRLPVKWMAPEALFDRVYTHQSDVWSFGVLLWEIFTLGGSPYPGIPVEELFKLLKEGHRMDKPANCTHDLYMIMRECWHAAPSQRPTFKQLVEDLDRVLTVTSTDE
Sequence of FGFR3 (SEQ ID NO: 5, amino acids 449-759) (P22607 449-759): as above
Sequence of dephosphorylated FGFR2 (P21802 22-821): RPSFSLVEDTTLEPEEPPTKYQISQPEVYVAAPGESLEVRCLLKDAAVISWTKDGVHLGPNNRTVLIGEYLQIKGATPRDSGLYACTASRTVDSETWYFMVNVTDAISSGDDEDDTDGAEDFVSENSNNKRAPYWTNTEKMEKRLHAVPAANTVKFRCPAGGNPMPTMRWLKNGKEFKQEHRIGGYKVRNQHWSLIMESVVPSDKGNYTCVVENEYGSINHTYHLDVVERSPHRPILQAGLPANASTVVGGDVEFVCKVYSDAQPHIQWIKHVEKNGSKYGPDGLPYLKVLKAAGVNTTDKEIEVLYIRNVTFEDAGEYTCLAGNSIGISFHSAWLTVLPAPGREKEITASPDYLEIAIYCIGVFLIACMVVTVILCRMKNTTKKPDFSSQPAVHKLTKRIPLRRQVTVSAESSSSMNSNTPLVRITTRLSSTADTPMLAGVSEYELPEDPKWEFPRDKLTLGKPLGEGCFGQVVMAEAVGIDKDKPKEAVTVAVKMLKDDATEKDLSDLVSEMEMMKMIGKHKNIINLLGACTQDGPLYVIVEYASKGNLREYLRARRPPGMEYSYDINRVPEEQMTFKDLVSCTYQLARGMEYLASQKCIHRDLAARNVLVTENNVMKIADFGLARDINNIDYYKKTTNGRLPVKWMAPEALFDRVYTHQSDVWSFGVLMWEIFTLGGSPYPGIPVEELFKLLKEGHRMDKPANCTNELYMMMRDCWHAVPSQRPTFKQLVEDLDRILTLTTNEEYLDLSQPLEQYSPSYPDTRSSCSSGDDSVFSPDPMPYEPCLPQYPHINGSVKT
T1 sequence (P22607 23-806): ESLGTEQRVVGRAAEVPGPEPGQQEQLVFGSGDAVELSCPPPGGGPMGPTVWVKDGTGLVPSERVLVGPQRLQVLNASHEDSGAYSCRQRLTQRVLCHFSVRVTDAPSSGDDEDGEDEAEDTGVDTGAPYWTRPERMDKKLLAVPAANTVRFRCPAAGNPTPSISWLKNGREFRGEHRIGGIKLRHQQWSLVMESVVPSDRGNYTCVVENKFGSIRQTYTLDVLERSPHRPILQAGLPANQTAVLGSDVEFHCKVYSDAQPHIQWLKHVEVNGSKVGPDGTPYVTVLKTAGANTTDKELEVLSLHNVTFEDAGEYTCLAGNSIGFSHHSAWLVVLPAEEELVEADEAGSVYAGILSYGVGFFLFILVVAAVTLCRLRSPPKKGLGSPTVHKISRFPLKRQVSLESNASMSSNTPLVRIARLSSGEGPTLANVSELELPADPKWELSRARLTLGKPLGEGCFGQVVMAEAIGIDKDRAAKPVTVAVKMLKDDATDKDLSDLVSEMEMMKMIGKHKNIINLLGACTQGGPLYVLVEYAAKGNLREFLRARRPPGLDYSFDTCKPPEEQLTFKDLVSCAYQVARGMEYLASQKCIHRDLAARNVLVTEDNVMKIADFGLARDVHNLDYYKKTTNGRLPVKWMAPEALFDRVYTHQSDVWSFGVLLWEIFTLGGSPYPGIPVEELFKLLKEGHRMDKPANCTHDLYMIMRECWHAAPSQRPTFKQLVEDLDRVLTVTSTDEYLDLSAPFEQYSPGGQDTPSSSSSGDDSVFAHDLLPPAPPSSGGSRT

IC50 [1] [nM] | IC50 [2] [nM] | IC50 [3] [nM] | FGFR3 Enz kobs [4] [min⁻¹] | IC50 [5] [nM] | SMILES | IC50 [6] [nM]
15 | 26 | 2 | 0.02377 | 247 | C=CC(=O)N1CCC(C#N)(C(=O)N2CCC(n3cc(-c4cc(OC)c5c(C#N)cnn5c4)cn3)CC2)C1 (stereo not shown) [Example 31, 6-(1-(1-(1-acryloyl-3-cyanopyrrolidine-3-carbonyl)piperidin-4-yl)-1H-pyrazol-4-yl)-4-methoxypyrazolo[1,5-a]pyridine-3-carbonitrile] | 
37 | 43 | 4 | 0.01426 | 363 | C=CC(=O)N1CC(C(=O)N2CCC(n3cc(-c4cc(OC)c5c(C#N)cnn5c4)cn3)CC2)C1 [Example 36, 6-(1-(1-(1-acryloylazetidine-3-carbonyl)piperidin-4-yl)-1H-pyrazol-4-yl)-4-methoxypyrazolo[1,5-a]pyridine-3-carbonitrile] | 
101 | 8 | 2 | 0.2019 | 52 | C=CC(=O)N1CC(C#N)(C(=O)N2CCC(n3cc(-c4cc(OC)c5c(C#N)cnn5c4)cn3)CC2)C1 [Example 39, 6-(1-(1-(1-acryloyl-3-cyanoazetidine-3-carbonyl)piperidin-4-yl)-1H-pyrazol-4-yl)-4-methoxypyrazolo[1,5-a]pyridine-3-carbonitrile] | 
10 | 12 | 3 | 0.02709 | 91 | C=CC(=O)N1CC(OC)(C(=O)N2CCC(n3cc(-c4cc(OC)c5c(C#N)cnn5c4)cn3)CC2)C1 [Example 41, 6-(1-(1-(1-acryloyl-3-methoxyazetidine-3-carbonyl)piperidin-4-yl)-1H-pyrazol-4-yl)-4-methoxypyrazolo[1,5-a]pyridine-3-carbonitrile] | 
31 | 77 | 3 | 0.01575 | 631 | C=CC(=O)N1CC(C(=O)N2CCC(n3cc(-c4cc(OC)c5c(C#N)cnn5c4)cn3)CC2)C1C (stereo not shown) [Example 42, 6-(1-(1-(1-acryloyl-2-methylazetidine-3-carbonyl)piperidin-4-yl)-1H-pyrazol-4-yl)-4-methoxypyrazolo[1,5-a]pyridine-3-carbonitrile] | 
64 | 90 | 4 | 0.0041 | 428 | C=CC(=O)N1CC(C(=O)N2CCC(n3cc(-c4cc(OC)c5c(C#N)cnn5c4)cn3)CC2)C1(C)C (stereo not shown) [Example 43, 6-(1-(1-(1-acryloyl-2,2-dimethylazetidine-3-carbonyl)piperidin-4-yl)-1H-pyrazol-4-yl)-4-methoxypyrazolo[1,5-a]pyridine-3-carbonitrile] | 
64 | 71 | 7 | 0.0205 | 381 | C=CC(=O)Nc1ccc(C(=O)N2CC[C@@H](n3cc(-c4cc(OC)c5c(C#N)cnn5c4)cn3)C2)cc1 [Example 55, (R)-N-(4-(3-(4-(3-cyano-4-methoxypyrazolo[1,5-a]pyridin-6-yl)-1H-pyrazol-1-yl)pyrrolidine-1-carbonyl)phenyl)acrylamide] | 
814 | 853 | 23 | 0.00319 | 3360 | C=CC(=O)N1CCC(C(=O)N2CCC(n3ncc(-c4cc(OC)c5c(C#N)cnn5c4)c3C)CC2)CC1 [Example 82, 6-(1-(1-(1-acryloylpiperidine-4-carbonyl)piperidin-4-yl)-5-methyl-1H-pyrazol-4-yl)-4-methoxypyrazolo[1,5-a]pyridine-3-carbonitrile] | 
 | 159 | 9 | 0.02116 | 2370 | C=CC(=O)N1CC(C)(C(=O)N2CCC(n3ncc(-c4cc(OC)c5c(C#N)cnn5c4)c3C)CC2)C1 [Example 86, 6-(1-(1-(1-acryloyl-3-methylazetidine-3-carbonyl)piperidin-4-yl)-5-methyl-1H-pyrazol-4-yl)-4-methoxypyrazolo[1,5-a]pyridine-3-carbonitrile] | 12
 | 520 | 16 | 0.00502 | 2350 | C=CC(=O)N1CC(C(=O)N2CCC(n3ncc(-c4cc(OC)c5c(C#N)cnn5c4)c3C)CC2)C1(C)C (stereo not shown) [Example 87, 6-(1-(1-(1-acryloyl-2,2-dimethylazetidine-3-carbonyl)piperidin-4-yl)-5-methyl-1H-pyrazol-4-yl)-4-methoxypyrazolo[1,5-a]pyridine-3-carbonitrile] | 51
336 | 450 | 18 | 0.01518 | 4500 | C=CC(=O)N1CC(C(=O)N2CCC(n3cc(-c4cc(OC)c5c(C#N)cnn5c4)c(C)n3)CC2)C1 [Example 94, 6-(1-(1-(1-acryloylazetidine-3-carbonyl)piperidin-4-yl)-3-methyl-1H-pyrazol-4-yl)-4-methoxypyrazolo[1,5-a]pyridine-3-carbonitrile] | 
24 | 19 | 1 | 0.08524 | 134 | C=CS(=O)(=O)Nc1cccc(C(=O)N2CCC(n3cc(-c4cc(OC)c5c(C#N)cnn5c4)cn3)CC2)c1 [Example 188, N-(3-(4-(4-(3-cyano-4-methoxypyrazolo[1,5-a]pyridin-6-yl)-1H-pyrazol-1-yl)piperidine-1-carbonyl)phenyl)eth-enesulfonamide] | 

SMILES | IC50 [1] [nM] | IC50 [2] [nM] | IC50 [3] [nM] | FGFR3 Enz kobs [4] [min⁻¹] | IC50 [5] [nM] | IC50 [6] [nM]
C=CC(=O)N1C2CC1CN(C(=O)N1CCC(n3cc(-c4cc(OC)c5c(C#N)cnn5c4)cn3)CC1)C2 [Example 1, 6-(1-(1-(6-acryloyl-3,6-diazabicyclo[3.1.1]heptane-3-carbonyl)piperidin-4-yl)-1H-pyrazol-4-yl)-4-methoxypyrazolo[1,5-a]pyridine-3-carbonitrile] | 26 | 86 | 4 | 0.01496 | 525 | 
C=CC(=O)N1C2COCC1CN(C(=O)N1CCC(n3cc(-c4cc(OC)c5c(C#N)cnn5c4)cn3)CC1)C2 [Example 3, 6-(1-(1-(9-acryloyl-3-oxa-7,9-diazabicyclo[3.3.1]nonane-7-carbonyl)piperidin-4-yl)-1H-pyrazol-4-yl)-4-methoxypyrazolo[1,5-a]pyridine-3-carbonitrile] | 41 | 108 | 3 | 0.01875 | 870 | 
C=CC(=O)N1CC(C(=O)N2C3CCC2CN(c2ccc(-c4cc(OC)c5c(C#N)cnn5c4)cn2)C3)C1 [Example 50, 6-(6-(8-(1-acryloylazetidine-3-carbonyl)-3,8-diazabicyclo[3.2.1]octan-3-yl)pyridin-3-yl)-4-methoxypyrazolo[1,5-a]pyridine-3-carbonitrile] |  | 25 | 3 | 0.04375 | 103 | 14
C=CC(=O)N1CC(C(=O)N2CC3CCC(C2)N3c2ccc(-c3cc(OC)c4c(C#N)cnn4c3)cn2)C1 [Example 51, 6-(6-(3-(1-acryloylazetidine-3-carbonyl)-3,8-diazabicyclo[3.2.1]octan-8-yl)pyridin-3-yl)-4-methoxypyrazolo[1,5-a]pyridine-3-carbonitrile] |  | 61 | 9 | 0.01769 | 198 | 38
C=CC(=O)N1CC(C(=O)N2C3CC2CN(c2ccc(-c4cc(OC)c5c(C#N)cnn5c4)cn2)C3)C1 [Example 52, 6-(6-(6-(1-acryloylazetidine-3-carbonyl)-3,6-diazabicyclo[3.1.1]heptan-3-yl)pyridin-3-yl)-4-methoxypyrazolo[1,5-a]pyridine-3-carbonitrile] |  | 262 | 14 | 0.00929 | 759 | 32
